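Dose response: 5 concentrations. Exposure: 48 h. Format: 96-well plates. Endpoint: linear interpolation; highest concentration if not reached. GI50 = concentration required for 50% inhibition of growth. The concentration for full growth arrest is given as TGI.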
Columns and labels:
Assay in all cases: inhibition of tumour cell growth, NCI panel, 48 h
786-0 renal = tested on: 786-0 renal
A498 renal = tested on: A498 renal
A549 NSCLC = tested on: A549 NSCLC
ACHN renal = tested on: ACHN renal
BT-549 breast = tested on: BT-549 breast
CAKI-1 renal = tested on: CAKI-1 renal
CCRF-CEM leukemia = tested on: CCRF-CEM leukemia
COLO 205 colon = tested on: COLO 205 colon
DU-145 prostate = tested on: DU-145 prostate
EKVX NSCLC = tested on: EKVX NSCLC
HCC-2998 colon = tested on: HCC-2998 colon
HCT-116 colon = tested on: HCT-116 colon
HCT-15 colon = tested on: HCT-15 colon
HL-60(TB) leukemia = tested on: HL-60(TB) leukemia
HOP-62 NSCLC = tested on: HOP-62 NSCLC
HOP-92 NSCLC = tested on: HOP-92 NSCLC
HS 578T breast = tested on: HS 578T breast
HT29 colon = tested on: HT29 colon
IGROV1 ovarian = tested on: IGROV1 ovarian
K-562 leukemia = tested on: K-562 leukemia
KM12 colon = tested on: KM12 colon
LOX IMVI melanoma = tested on: LOX IMVI melanoma
M14 melanoma = tested on: M14 melanoma
MALME-3M melanoma = tested on: MALME-3M melanoma
MCF7 breast = tested on: MCF7 breast
MDA-MB-231 breast = tested on: MDA-MB-231 breast
MDA-MB-435 = tested on: MDA-MB-435
MOLT-4 leukemia = tested on: MOLT-4 leukemia
NCI-H226 lung = tested on: NCI-H226 lung
NCI-H23 lung = tested on: NCI-H23 lung
NCI-H460 lung = tested on: NCI-H460 lung
NCI-H522 lung = tested on: NCI-H522 lung
NCI/ADR-RES ovarian = tested on: NCI/ADR-RES ovarian
OVCAR-3 ovarian = tested on: OVCAR-3 ovarian
OVCAR-4 ovarian = tested on: OVCAR-4 ovarian
OVCAR-5 ovarian = tested on: OVCAR-5 ovarian
OVCAR-8 ovarian = tested on: OVCAR-8 ovarian
PC-3 prostate = tested on: PC-3 prostate
RPMI-8226 leukemia = tested on: RPMI-8226 leukemia
RXF 393 renal = tested on: RXF 393 renal
SF-268 CNS = tested on: SF-268 CNS
SF-295 CNS = tested on: SF-295 CNS
SF-539 CNS = tested on: SF-539 CNS
SK-MEL-2 melanoma = tested on: SK-MEL-2 melanoma
SK-MEL-28 melanoma = tested on: SK-MEL-28 melanoma
SK-MEL-5 melanoma = tested on: SK-MEL-5 melanoma
SK-OV-3 ovarian = tested on: SK-OV-3 ovarian
SN12C renal = tested on: SN12C renal
SNB-19 CNS = tested on: SNB-19 CNS
SNB-75 CNS = tested on: SNB-75 CNS
SR leukemia = tested on: SR leukemia
SW-620 colon = tested on: SW-620 colon
T-47D breast = tested on: T-47D breast
TK-10 renal = tested on: TK-10 renal
U251 CNS = tested on: U251 CNS
UACC-257 melanoma = tested on: UACC-257 melanoma
UACC-62 melanoma = tested on: UACC-62 melanoma
UO-31 renal = tested on: UO-31 renal

Molecule `COc1cccc(NC(=O)c2sc3nc(C)c(C(O)c4ccccc4)cc3c2N)c1` (stereo unspecified) has a GI50 (786-0 renal) of 665 nM, a TGI (786-0 renal) of 26.6 µM and a GI50 (A498 renal) of 97.1 nM. The TGI (A498 renal) was 615 nM, the GI50 (A549 NSCLC) was 402 nM and the TGI (A549 NSCLC) was 21 µM. The GI50 (ACHN renal) was 601 nM, the TGI (ACHN renal) was 18.2 µM and the GI50 (BT-549 breast) was 335 nM. The TGI (BT-549 breast) was 19.5 µM, the GI50 (CAKI-1 renal) was 347 nM and the TGI (CAKI-1 renal) was 18 µM. It also gave a GI50 (CCRF-CEM leukemia) of 219 nM, a TGI (CCRF-CEM leukemia) of over 79.7 µM and a GI50 (COLO 205 colon) of 2420 nM. The TGI (COLO 205 colon) was 13.6 µM, the GI50 (DU-145 prostate) was 382 nM and the TGI (DU-145 prostate) was 19.6 µM. It also gave a GI50 (EKVX NSCLC) of 760 nM, a TGI (EKVX NSCLC) of 34.8 µM and a GI50 (HCC-2998 colon) of 359 nM. The TGI (HCC-2998 colon) was 4.05 µM, the GI50 (HCT-116 colon) was 241 nM and the TGI (HCT-116 colon) was 12 µM. The GI50 (HCT-15 colon) was 92.4 nM, the TGI (HCT-15 colon) was 12.4 µM and the GI50 (HL-60(TB) leukemia) was 231 nM. The TGI (HL-60(TB) leukemia) was 742 nM, the GI50 (HOP-62 NSCLC) was 481 nM and the TGI (HOP-62 NSCLC) was 26.2 µM. For the same molecule, the GI50 (HOP-92 NSCLC) was 4.21 µM, the TGI (HOP-92 NSCLC) was 26.9 µM and the GI50 (HS 578T breast) was 222 nM. It also gave a TGI (HS 578T breast) of 3.21 µM, a GI50 (HT29 colon) of 300 nM and a TGI (HT29 colon) of 14 µM. The GI50 (IGROV1 ovarian) was 441 nM, the TGI (IGROV1 ovarian) was 16.8 µM and the GI50 (K-562 leukemia) was 117 nM. It also gave a TGI (K-562 leukemia) of over 100 µM, a GI50 (KM12 colon) of 337 nM and a TGI (KM12 colon) of 11.8 µM. It also gave a GI50 (LOX IMVI melanoma) of 264 nM, a TGI (LOX IMVI melanoma) of 18.6 µM and a GI50 (M14 melanoma) of 199 nM. The TGI (M14 melanoma) was 17.4 µM, the GI50 (MALME-3M melanoma) was 580 nM and the TGI (MALME-3M melanoma) was 27.4 µM. The GI50 (MCF7 breast) was 69.8 nM, the TGI (MCF7 breast) was 13.9 µM and the GI50 (MDA-MB-231 breast) was 345 nM. It also gave a TGI (MDA-MB-231 breast) of 33.5 µM, a GI50 (MDA-MB-435) of 25.1 nM and a TGI (MDA-MB-435) of 75.1 nM. The GI50 (MOLT-4 leukemia) was 378 nM, the TGI (MOLT-4 leukemia) was 19.5 µM and the GI50 (NCI-H226 lung) was 2030 nM. It also gave a TGI (NCI-H226 lung) of 23.7 µM, a GI50 (NCI-H23 lung) of 401 nM and a TGI (NCI-H23 lung) of 15.8 µM. It also gave a GI50 (NCI-H460 lung) of 324 nM, a TGI (NCI-H460 lung) of 3.21 µM and a GI50 (NCI-H522 lung) of 308 nM. For the same molecule, the TGI (NCI-H522 lung) was 14.1 µM, the GI50 (NCI/ADR-RES ovarian) was 245 nM and the TGI (NCI/ADR-RES ovarian) was 941 nM. It also gave a GI50 (OVCAR-3 ovarian) of 255 nM, a TGI (OVCAR-3 ovarian) of 2930 nM and a GI50 (OVCAR-4 ovarian) of 811 nM. The TGI (OVCAR-4 ovarian) was 32.7 µM, the GI50 (OVCAR-5 ovarian) was 611 nM and the TGI (OVCAR-5 ovarian) was 19.2 µM. It also gave a GI50 (OVCAR-8 ovarian) of 469 nM, a TGI (OVCAR-8 ovarian) of over 66.7 µM and a GI50 (PC-3 prostate) of 490 nM. It also gave a TGI (PC-3 prostate) of 22.3 µM, a GI50 (RPMI-8226 leukemia) of 357 nM and a TGI (RPMI-8226 leukemia) of 12.3 µM. For the same molecule, the GI50 (RXF 393 renal) was 226 nM, the TGI (RXF 393 renal) was 2750 nM and the GI50 (SF-268 CNS) was 1050 nM. It also gave a TGI (SF-268 CNS) of 30.9 µM, a GI50 (SF-295 CNS) of 276 nM and a TGI (SF-295 CNS) of 6.82 µM. For the same molecule, the GI50 (SF-539 CNS) was 185 nM, the TGI (SF-539 CNS) was 598 nM and the GI50 (SK-MEL-2 melanoma) was 960 nM. It also gave a TGI (SK-MEL-2 melanoma) of 29.7 µM, a GI50 (SK-MEL-28 melanoma) of 3.65 µM and a TGI (SK-MEL-28 melanoma) of 35.3 µM. For the same molecule, the GI50 (SK-MEL-5 melanoma) was 287 nM, the TGI (SK-MEL-5 melanoma) was 1320 nM and the GI50 (SK-OV-3 ovarian) was 658 nM. It also gave a TGI (SK-OV-3 ovarian) of 23.8 µM, a GI50 (SN12C renal) of 421 nM and a TGI (SN12C renal) of 17.6 µM. For the same molecule, the GI50 (SNB-19 CNS) was 467 nM, the TGI (SNB-19 CNS) was 74.6 µM and the GI50 (SNB-75 CNS) was 174 nM. It also gave a TGI (SNB-75 CNS) of 4.55 µM, a GI50 (SR leukemia) of 50.3 nM and a TGI (SR leukemia) of 22.1 µM. It also gave a GI50 (SW-620 colon) of 228 nM, a TGI (SW-620 colon) of 27.1 µM and a GI50 (T-47D breast) of 737 nM. For the same molecule, the TGI (T-47D breast) was 28.4 µM, the GI50 (TK-10 renal) was 2030 nM and the TGI (TK-10 renal) was 65.1 µM. It also gave a GI50 (U251 CNS) of 289 nM, a TGI (U251 CNS) of 22.3 µM and a GI50 (UACC-257 melanoma) of 2720 nM. It also gave a TGI (UACC-257 melanoma) of 35.1 µM, a GI50 (UACC-62 melanoma) of 503 nM and a TGI (UACC-62 melanoma) of 17.3 µM. For the same molecule, the GI50 (UO-31 renal) was 850 nM and the TGI (UO-31 renal) was 18.9 µM.
